Test results as given in the kinase profiling compilation of Christmann-Franck et al. (2016).

Legend:
Assay in all cases: radiometric filter-binding kinase assay, Kinase HotSpot
Conditions in all cases: compound 0.5 µM; ATP 10 µM
ACVR1 (human) = ACVR1 (human) (UniProt Q04771)
ACVR1B (human) = ACVR1B (human) (UniProt P36896)
ALK (human) = ALK (human) (UniProt Q9UM73)
CDK3 CCNE1 (human) = CDK3 CCNE1 (human) (UniProt Q00526+P24864)
CHUK (human) = CHUK (human) (UniProt O15111)
CLK1 (human) = CLK1 (human) (UniProt P49759)
CLK2 (human) = CLK2 (human) (UniProt P49760)
CLK3 (human) = CLK3 (human) (UniProt P49761)
CSNK1G2 (human) = CSNK1G2 (human) (UniProt P78368)
DYRK3 (human) = DYRK3 (human) (UniProt O43781)
Sequence of DYRK3 (human) (O43781 whole entry, looked up): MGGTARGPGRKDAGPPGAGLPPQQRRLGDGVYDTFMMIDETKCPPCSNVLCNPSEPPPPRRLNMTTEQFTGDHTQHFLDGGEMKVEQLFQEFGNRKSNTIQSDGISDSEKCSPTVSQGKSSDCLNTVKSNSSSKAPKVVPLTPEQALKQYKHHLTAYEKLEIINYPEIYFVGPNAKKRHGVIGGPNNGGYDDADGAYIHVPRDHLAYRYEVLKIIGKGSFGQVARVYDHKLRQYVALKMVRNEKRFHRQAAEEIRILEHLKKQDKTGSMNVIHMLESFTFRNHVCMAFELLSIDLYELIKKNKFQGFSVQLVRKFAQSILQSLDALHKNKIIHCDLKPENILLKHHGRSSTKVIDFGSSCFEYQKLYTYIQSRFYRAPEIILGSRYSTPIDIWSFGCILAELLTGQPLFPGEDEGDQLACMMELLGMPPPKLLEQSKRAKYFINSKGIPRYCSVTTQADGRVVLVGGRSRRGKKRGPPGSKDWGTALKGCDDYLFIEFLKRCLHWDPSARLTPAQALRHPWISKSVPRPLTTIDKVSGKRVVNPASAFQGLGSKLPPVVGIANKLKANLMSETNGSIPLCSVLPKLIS

EPHB3 (human) = EPHB3 (human) (UniProt P54753)
ERBB4 (human) = ERBB4 (human) (UniProt Q15303)
Sequence of ERBB4 (human) (Q15303 whole entry, looked up): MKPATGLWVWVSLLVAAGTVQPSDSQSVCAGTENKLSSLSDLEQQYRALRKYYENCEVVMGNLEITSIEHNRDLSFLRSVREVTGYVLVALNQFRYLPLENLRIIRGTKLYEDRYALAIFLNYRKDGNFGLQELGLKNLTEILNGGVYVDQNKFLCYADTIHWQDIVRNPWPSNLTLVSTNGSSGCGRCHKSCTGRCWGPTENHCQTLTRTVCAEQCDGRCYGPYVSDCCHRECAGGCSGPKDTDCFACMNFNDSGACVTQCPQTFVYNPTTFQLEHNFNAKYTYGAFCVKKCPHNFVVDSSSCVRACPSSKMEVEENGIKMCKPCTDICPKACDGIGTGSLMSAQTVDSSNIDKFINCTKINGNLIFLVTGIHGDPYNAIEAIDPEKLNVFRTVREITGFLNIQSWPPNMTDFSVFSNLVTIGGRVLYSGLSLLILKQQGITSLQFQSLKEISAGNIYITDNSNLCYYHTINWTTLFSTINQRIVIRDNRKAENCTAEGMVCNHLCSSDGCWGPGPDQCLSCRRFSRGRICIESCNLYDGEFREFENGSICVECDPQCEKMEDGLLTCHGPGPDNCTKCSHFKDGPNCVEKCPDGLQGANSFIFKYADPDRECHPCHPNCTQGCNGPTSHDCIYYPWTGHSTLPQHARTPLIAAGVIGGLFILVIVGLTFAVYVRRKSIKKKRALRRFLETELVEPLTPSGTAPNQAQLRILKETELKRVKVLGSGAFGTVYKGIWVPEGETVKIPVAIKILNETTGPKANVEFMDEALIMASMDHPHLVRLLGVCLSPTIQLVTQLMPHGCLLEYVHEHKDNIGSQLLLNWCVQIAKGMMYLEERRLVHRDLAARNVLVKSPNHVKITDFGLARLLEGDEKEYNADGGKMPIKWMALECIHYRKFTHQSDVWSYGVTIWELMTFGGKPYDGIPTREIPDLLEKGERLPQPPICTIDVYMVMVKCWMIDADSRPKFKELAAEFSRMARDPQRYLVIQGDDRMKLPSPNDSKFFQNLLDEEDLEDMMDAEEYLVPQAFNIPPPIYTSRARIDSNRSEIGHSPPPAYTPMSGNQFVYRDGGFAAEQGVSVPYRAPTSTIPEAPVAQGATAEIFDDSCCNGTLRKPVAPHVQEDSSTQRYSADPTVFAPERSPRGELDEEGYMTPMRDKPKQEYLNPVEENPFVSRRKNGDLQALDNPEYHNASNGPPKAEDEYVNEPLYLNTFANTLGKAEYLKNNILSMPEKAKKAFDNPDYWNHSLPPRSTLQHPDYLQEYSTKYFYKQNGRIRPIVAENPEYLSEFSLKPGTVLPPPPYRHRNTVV

FER (human) = FER (human) (UniProt P16591)
GRK7 (human) = GRK7 (human) (UniProt Q8WTQ7)
HIPK4 (human) = HIPK4 (human) (UniProt Q8NE63)
[1] = molecular target: JAK1 JH1 catalytic (human) (UniProt P23458)
Sequence of JAK1 JH1 catalytic (human) (P23458 whole entry, looked up): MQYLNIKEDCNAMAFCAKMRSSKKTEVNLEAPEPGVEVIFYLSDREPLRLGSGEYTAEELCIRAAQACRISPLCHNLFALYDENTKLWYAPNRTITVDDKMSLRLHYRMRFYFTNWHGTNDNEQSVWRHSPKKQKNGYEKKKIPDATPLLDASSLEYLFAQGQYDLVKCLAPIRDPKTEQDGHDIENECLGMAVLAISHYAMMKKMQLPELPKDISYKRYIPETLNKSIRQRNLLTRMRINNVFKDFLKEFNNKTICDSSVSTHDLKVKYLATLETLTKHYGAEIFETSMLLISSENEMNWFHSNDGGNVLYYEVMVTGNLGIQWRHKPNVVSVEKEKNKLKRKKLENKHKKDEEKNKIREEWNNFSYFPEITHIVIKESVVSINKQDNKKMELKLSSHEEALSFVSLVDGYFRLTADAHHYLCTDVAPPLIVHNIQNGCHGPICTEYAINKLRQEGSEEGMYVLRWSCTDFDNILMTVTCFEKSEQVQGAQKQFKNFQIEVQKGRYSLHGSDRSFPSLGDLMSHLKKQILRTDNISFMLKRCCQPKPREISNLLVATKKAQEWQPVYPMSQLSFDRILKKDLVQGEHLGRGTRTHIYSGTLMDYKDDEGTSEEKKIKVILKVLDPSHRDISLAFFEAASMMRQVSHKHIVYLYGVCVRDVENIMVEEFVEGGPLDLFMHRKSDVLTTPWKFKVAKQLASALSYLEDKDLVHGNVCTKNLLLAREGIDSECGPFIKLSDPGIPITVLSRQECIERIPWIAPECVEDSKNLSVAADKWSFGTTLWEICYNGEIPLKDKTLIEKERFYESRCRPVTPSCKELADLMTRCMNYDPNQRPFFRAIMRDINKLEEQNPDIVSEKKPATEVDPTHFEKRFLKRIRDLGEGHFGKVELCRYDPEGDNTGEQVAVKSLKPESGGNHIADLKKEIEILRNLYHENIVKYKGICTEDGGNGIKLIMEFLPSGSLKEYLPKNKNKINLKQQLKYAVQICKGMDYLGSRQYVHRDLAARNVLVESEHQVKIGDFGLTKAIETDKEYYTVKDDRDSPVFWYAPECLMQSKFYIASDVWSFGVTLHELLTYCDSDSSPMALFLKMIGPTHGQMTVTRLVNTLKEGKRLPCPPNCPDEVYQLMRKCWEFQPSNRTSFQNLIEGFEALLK

KIT (human) = KIT (human) (UniProt P10721)
MAP2K1 (human) = MAP2K1 (human) (UniProt Q02750)
MAP3K11 (human) = MAP3K11 (human) (UniProt Q16584)
Sequence of MAP3K11 (human) (Q16584 whole entry, looked up): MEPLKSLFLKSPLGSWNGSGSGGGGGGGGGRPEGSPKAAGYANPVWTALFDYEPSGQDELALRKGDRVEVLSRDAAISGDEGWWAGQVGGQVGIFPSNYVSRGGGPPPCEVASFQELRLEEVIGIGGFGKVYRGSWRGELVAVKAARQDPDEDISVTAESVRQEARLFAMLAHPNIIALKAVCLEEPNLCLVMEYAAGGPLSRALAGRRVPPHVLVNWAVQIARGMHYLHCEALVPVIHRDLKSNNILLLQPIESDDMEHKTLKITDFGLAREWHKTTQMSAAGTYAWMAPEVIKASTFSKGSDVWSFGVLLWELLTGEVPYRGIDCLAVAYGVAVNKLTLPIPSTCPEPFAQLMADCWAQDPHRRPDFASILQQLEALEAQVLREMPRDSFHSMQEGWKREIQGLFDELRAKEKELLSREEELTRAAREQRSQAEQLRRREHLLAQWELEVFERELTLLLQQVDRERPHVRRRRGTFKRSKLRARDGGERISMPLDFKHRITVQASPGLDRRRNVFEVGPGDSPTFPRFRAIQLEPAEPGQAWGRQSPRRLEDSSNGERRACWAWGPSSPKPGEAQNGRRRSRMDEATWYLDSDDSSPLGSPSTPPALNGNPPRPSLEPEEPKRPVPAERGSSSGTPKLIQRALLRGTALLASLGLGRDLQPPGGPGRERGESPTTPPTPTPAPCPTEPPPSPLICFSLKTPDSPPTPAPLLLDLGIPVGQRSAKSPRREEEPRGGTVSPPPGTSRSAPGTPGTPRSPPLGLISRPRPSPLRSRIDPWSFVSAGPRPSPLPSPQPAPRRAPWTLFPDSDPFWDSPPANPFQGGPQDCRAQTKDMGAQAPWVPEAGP

MAP3K3 (human) = MAP3K3 (human) (UniProt Q99759)
MAP3K8 (human) = MAP3K8 (human) (UniProt P41279)
MAP4K2 (human) = MAP4K2 (human) (UniProt Q12851)
MAPK13 (human) = MAPK13 (human) (UniProt O15264)
MARK1 (human) = MARK1 (human) (UniProt Q9P0L2)
MINK1 (human) = MINK1 (human) (UniProt Q8N4C8)
NEK1 (human) = NEK1 (human) (UniProt Q96PY6)
NLK (human) = NLK (human) (UniProt Q9UBE8)
NTRK3 (human) = NTRK3 (human) (UniProt Q16288)
PAK3 (human) = PAK3 (human) (UniProt O75914)
PDGFRA (human) = PDGFRA (human) (UniProt P16234)
PDGFRB (human) = PDGFRB (human) (UniProt P09619)
PKN2 (human) = PKN2 (human) (UniProt Q16513)
PRKCE (human) = PRKCE (human) (UniProt Q02156)
RET (human) = RET (human) (UniProt P07949)
ROS1 (human) = ROS1 (human) (UniProt P08922)
RPS6KA3 KD1 KD2 (human) = RPS6KA3 KD1 KD2 (human) (UniProt P51812)
SIK2 (human) = SIK2 (human) (UniProt Q9H0K1)
Sequence of SIK2 (human) (Q9H0K1 whole entry, looked up): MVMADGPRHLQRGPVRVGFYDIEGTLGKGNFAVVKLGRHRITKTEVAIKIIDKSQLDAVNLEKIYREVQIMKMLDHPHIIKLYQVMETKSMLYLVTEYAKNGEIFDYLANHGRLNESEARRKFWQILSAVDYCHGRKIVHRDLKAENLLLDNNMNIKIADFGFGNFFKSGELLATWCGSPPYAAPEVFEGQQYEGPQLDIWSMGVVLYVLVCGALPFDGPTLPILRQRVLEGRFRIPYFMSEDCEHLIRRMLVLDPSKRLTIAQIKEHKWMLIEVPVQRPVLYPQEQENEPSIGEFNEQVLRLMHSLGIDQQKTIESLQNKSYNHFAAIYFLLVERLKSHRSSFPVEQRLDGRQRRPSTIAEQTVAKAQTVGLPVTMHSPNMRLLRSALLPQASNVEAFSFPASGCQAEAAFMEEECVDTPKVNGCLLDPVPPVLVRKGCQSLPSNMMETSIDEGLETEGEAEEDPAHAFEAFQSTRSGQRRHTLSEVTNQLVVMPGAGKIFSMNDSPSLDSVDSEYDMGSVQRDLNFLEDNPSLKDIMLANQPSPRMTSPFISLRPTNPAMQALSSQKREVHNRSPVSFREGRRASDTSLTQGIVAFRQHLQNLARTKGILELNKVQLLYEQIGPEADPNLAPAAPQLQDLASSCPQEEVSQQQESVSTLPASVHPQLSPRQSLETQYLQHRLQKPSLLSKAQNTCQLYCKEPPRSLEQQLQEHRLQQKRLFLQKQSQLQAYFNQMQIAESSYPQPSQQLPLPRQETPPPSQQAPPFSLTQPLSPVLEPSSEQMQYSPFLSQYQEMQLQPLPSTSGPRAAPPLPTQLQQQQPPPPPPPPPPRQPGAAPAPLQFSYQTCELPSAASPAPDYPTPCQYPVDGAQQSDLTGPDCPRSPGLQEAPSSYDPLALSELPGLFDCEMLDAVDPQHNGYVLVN

SLK (human) = SLK (human) (UniProt Q9H2G2)
TGFBR2 (human) = TGFBR2 (human) (UniProt P37173)
TTK (human) = TTK (human) (UniProt P33981)
[2] = molecular target: TYK2 JH1 catalytic (human) (UniProt P29597)
ZAP70 (human) = ZAP70 (human) (UniProt P43403)

Compound: FC(F)(F)c1ccc(/C=C/c2nc(COc3ccc(CCCCn4ccnn4)cc3)co2)cc1
- residual activity (ACVR1 (human)): 101%
- residual activity (ACVR1B (human)): 92.8%
- residual activity (ALK (human)): 108%
- residual activity (CDK3 CCNE1 (human)): 91%
- residual activity (CHUK (human)): 96.8%
- residual activity (CLK1 (human)): 101%
- residual activity (CLK2 (human)): 89.6%
- residual activity (CLK3 (human)): 92.2%
- residual activity (CSNK1G2 (human)): 96.7%
- residual activity (DYRK3 (human)): 109%
- residual activity (EPHB3 (human)): 94.9%
- residual activity (ERBB4 (human)): 99.6%
- residual activity (FER (human)): 102%
- residual activity (GRK7 (human)): 97.8%
- residual activity (HIPK4 (human)): 105%
- residual activity [1]: 103%
- residual activity (KIT (human)): 98.8%
- residual activity (MAP2K1 (human)): 120%
- residual activity (MAP3K11 (human)): 99.1%
- residual activity (MAP3K3 (human)): 112%
- residual activity (MAP3K8 (human)): 90.8%
- residual activity (MAP4K2 (human)): 105%
- residual activity (MAPK13 (human)): 99.1%
- residual activity (MARK1 (human)): 102%
- residual activity (MINK1 (human)): 96.8%
- residual activity (NEK1 (human)): 94.5%
- residual activity (NLK (human)): 101%
- residual activity (NTRK3 (human)): 98.9%
- residual activity (PAK3 (human)): 101%
- residual activity (PDGFRA (human)): 104%
- residual activity (PDGFRB (human)): 98.1%
- residual activity (PKN2 (human)): 107%
- residual activity (PRKCE (human)): 101%
- residual activity (RET (human)): 101%
- residual activity (ROS1 (human)): 93.3%
- residual activity (RPS6KA3 KD1 KD2 (human)): 96.8%
- residual activity (SIK2 (human)): 103%
- residual activity (SLK (human)): 92.8%
- residual activity (TGFBR2 (human)): 103%
- residual activity (TTK (human)): 111%
- residual activity [2]: 99.1%
- residual activity (ZAP70 (human)): 115%
